Results from patent US6211425A, “Patch” (Saitama Daiichi Seiyaku Kabushiki Kaisha, priority 1996, dated 2001).
“Also recorded” adds a separate entry of the source.

Legend:
[1] = percutaneous absorption of formoterol (finding of the inventors); details: formoterol and/or salts thereof not in a dissolved state
[2] = hydrolytic stability of formoterol (general statement); assay type: physicochemical; details: preparations having high water contents

Compound: COc1ccc(CC(C)NCC(O)c2ccc(O)c(NC=O)c2)cc1 (centres unmarked) [formoterol]
- percutaneous absorption [1]: extremely poor percutaneous absorption
- hydrolysis [2]: hydrolyzed; also recorded: easily hydrolyzable
